# Assays:
# Assay type in all cases: in vivo
# [1] = tested on: barnyardgrass (Echinochloa crus-galli); assay: Test A pre-/postemergence plant response
# Outline: (§1)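 Pre: directed soil spray on seeded loam/sand blend. Post: same formulation (non-phytotoxic solvent + surfactant) on 2–10 cm plants, 1–2 leaf stage. Greenhouse ~10 d; visual injury score 0–100 vs untreated.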
# [2] = tested on: corn (Zea mays); assay: Test A pre-/postemergence plant response
# Outline: as §1
# [3] = tested on: giant foxtail (Setaria faberii); assay: Test A pre-/postemergence plant response
# Outline: as §1
# [4] = tested on: large crabgrass (Digitaria sanguinalis); assay: Test A pre-/postemergence plant response
# Outline: as §1
# [5] = tested on: morningglory (Ipomoea spp.); assay: Test A pre-/postemergence plant response
# Outline: as §1
# [6] = tested on: pigweed (Amaranthus retroflexus); assay: Test A pre-/postemergence plant response
# Outline: as §1
# [7] = tested on: velvetleaf (Abutilon theophrasti); assay: Test A pre-/postemergence plant response
# Outline: as §1
# [8] = tested on: wheat (Triticum aestivum); assay: Test A pre-/postemergence plant response
# Outline: as §1
# [9] = tested on: winter barley (Hordeum vulgare); assay: Test B postemergence plant response
# Outline: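 Visual ratings from 0 (no effect) to 100 (complete control), made against controls 13–15 days after treatment, kept in a greenhouse. Compounds were applied postemergence to potted plants at the 1- to 4-leaf stage (2–18 cm).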
# [10] = tested on: barnyardgrass (Echinochloa crus-galli); assay: Test B flooded paddy test; settings: for Plant response rating, Flood, Barnyardgrass: 250 g ai/ha, flooded paddy test, visual rating on 0 to 100 scale (0 no effect, 100 complete control) after 13 to 15 days; for Plant response rating, Barnyardgrass: Flood (flooded paddy test), 13 to 15 days
# Outline: (§2)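 Ratings are visual, 0–100 (100 = complete control), taken versus untreated controls 13 to 15 days after treatment in the greenhouse. Compound went straight into paddy water held 3 cm above soil, applied to 2-leaf-stage plants of four species.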
# [11] = tested on: ducksalad (Heteranthera limosa); assay: Test B flooded paddy test; settings: for Plant response rating, Flood, Ducksalad: 250 g ai/ha, flooded paddy test, visual rating on 0 to 100 scale (0 no effect, 100 complete control) after 13 to 15 days; for Plant response rating, Ducksalad: Flood (flooded paddy test), 13 to 15 days
# Outline: as §2
# [12] = tested on: rice (Oryza sativa); assay: Test B flooded paddy test; settings: for Plant response rating, Flood, Rice: 250 g ai/ha, flooded paddy test, visual rating on 0 to 100 scale (0 no effect, 100 complete control) after 13 to 15 days; for Plant response rating, Rice: Flood (flooded paddy test), 13 to 15 days
# Outline: as §2
# [13] = tested on: umbrella sedge (Cyperus difformis); assay: Test B flooded paddy test; settings: for Plant response rating, Flood, Sedge, Umbrella: 250 g ai/ha, flooded paddy test, visual rating on 0 to 100 scale (0 no effect, 100 complete control) after 13 to 15 days; for Plant response rating, Sedge, Umbrella: Flood (flooded paddy test), 13 to 15 days
# Outline: as §2
# [14] = Postemergence, 125 g ai/ha, visual injury, 0 to 100 scale (0 no effect, 100 complete control), approx. ten days
# [15] = Postemergence, 500 g ai/ha, 0 to 100 scale, 0 = no effect, 100 = complete control, approx. ten days
# [16] = Preemergence, 125 g ai/ha, 0 to 100 scale, 0 = no effect, 100 = complete control
# [17] = Preemergence, 500 g ai/ha, visual injury, 0 to 100 scale (0 no effect, 100 complete control), approx. ten days
# [18] = Postemergence, 62 g ai/ha, scale 0 (no effect) to 100 (complete control), 13 to 15 days
# [19] = Postemergence, 125 g ai/ha, visual rating after 13 to 15 days, scale 0 (no effect) to 100 (complete control)
# [20] = 62 g ai/ha, scale of 0 to 100 where 0 is no effect and 100 is complete control
# [21] = 31 g ai/ha, scale of 0 to 100 where 0 is no effect and 100 is complete control
# [22] = 125 g ai/ha, scale 0 to 100, 0 is no effect, 100 is complete control
smiles,measurement,setting,value
Cc1cccc(Cl)c1-n1c(-c2ccccc2)ncc(C(=O)C2=C(O)CCCC2=O)c1=O [Compound 46],Barnyardgrass plant response rating,[1]; [14],80
same,"Plant response rating, Barnyardgrass",[1]; [15],90
same,"Plant response rating, Barnyardgrass",[1]; [16],0
same,"Plant response rating, Barnyardgrass",[1]; [17],50
same,Corn plant response rating,[2]; [14],0
same,"Plant response rating, Corn",[2]; [15],20
same,"Plant response rating, Corn",[2]; [16],0
same,"Plant response rating, Corn",[2]; [17],0
same,"Foxtail, Giant plant response rating",[3]; [14],60
same,"Plant response rating, Foxtail, Giant",[3]; [15],90
same,"Plant response rating, Foxtail, Giant",[3]; [16],0
same,"Plant response rating, Foxtail, Giant",[3]; [17],60
same,"Crabgrass, Large plant response rating",[4]; [14],70
same,"Plant response rating, Crabgrass, Large",[4]; [15],90
same,"Plant response rating, Crabgrass, Large",[4]; [16],30
same,"Plant response rating, Crabgrass, Large",[4]; [17],80
same,Morningglory plant response rating,[5]; [14],60
same,"Plant response rating, Morningglory",[5]; [15],70
same,"Plant response rating, Morningglory",[5]; [16],10
same,"Plant response rating, Morningglory",[5]; [17],70
same,Pigweed plant response rating,[6]; [14],80
same,"Plant response rating, Pigweed",[6]; [15],100
same,"Plant response rating, Pigweed",[6]; [16],60
same,"Plant response rating, Pigweed",[6]; [17],90
same,Velvetleaf plant response rating,[7]; [14],100
same,"Plant response rating, Velvetleaf",[7]; [15],100
same,"Plant response rating, Velvetleaf",[7]; [16],40
same,"Plant response rating, Velvetleaf",[7]; [17],70
same,Wheat plant response rating,[8]; [14],0
same,"Plant response rating, Wheat",[8]; [15],0
same,"Plant response rating, Wheat",[8]; [16],0
same,"Plant response rating, Wheat",[8]; [17],20
same,"Plant response rating, Barley","[9]; Postemergence, 31 g ai/ha, scale 0 to 100 (0 no effect, 100 complete control)",0
same,"Plant response rating, Barley",[9]; [18],0
same,"Plant response rating, Barley",[9]; [19],0
same,Barley plant response rating,"[9]; Postemergence, 250 g ai/ha, scale 0 to 100",0
same,"Plant response rating, Flood, Barnyardgrass",[10],0
same,"Plant response rating, Barnyardgrass",[10]; [20],0
same,"Plant response rating, Flood, Ducksalad",[11],20
same,"Plant response rating, Ducksalad",[11]; [20],20
same,"Plant response rating, Flood, Rice",[12],10
same,"Plant response rating, Rice",[12]; [20],10
same,"Plant response rating, Flood, Sedge, Umbrella",[13],65
same,"Plant response rating, Sedge, Umbrella",[13]; [20],45
Cc1cc(-n2c(-c3ccccc3)ncc(C(=O)C3=C(O)CCCC3=O)c2=O)ccc1F [Compound 53],Barnyardgrass plant response rating,[1]; [14],90
same,"Plant response rating, Barnyardgrass",[1]; [15],100
same,"Plant response rating, Barnyardgrass",[1]; [16],40
same,"Plant response rating, Barnyardgrass",[1]; [17],100
same,Corn plant response rating,[2]; [14],0
same,"Plant response rating, Corn",[2]; [15],80
same,"Plant response rating, Corn",[2]; [16],0
same,"Plant response rating, Corn",[2]; [17],0
same,"Foxtail, Giant plant response rating",[3]; [14],90
same,"Plant response rating, Foxtail, Giant",[3]; [15],90
same,"Plant response rating, Foxtail, Giant",[3]; [16],70
same,"Plant response rating, Foxtail, Giant",[3]; [17],100
same,"Crabgrass, Large plant response rating",[4]; [14],90
same,"Plant response rating, Crabgrass, Large",[4]; [15],100
same,"Plant response rating, Crabgrass, Large",[4]; [16],90
same,"Plant response rating, Crabgrass, Large",[4]; [17],100
same,Morningglory plant response rating,[5]; [14],100
same,"Plant response rating, Morningglory",[5]; [15],100
same,"Plant response rating, Morningglory",[5]; [16],80
same,"Plant response rating, Morningglory",[5]; [17],90
same,Pigweed plant response rating,[6]; [14],100
same,"Plant response rating, Pigweed",[6]; [15],100
same,"Plant response rating, Pigweed",[6]; [16],90
same,"Plant response rating, Pigweed",[6]; [17],100
same,Velvetleaf plant response rating,[7]; [14],100
same,"Plant response rating, Velvetleaf",[7]; [15],100
same,"Plant response rating, Velvetleaf",[7]; [16],80
same,"Plant response rating, Velvetleaf",[7]; [17],90
same,Wheat plant response rating,[8]; [14],30
same,"Plant response rating, Wheat",[8]; [15],50
same,"Plant response rating, Wheat",[8]; [16],0
same,"Plant response rating, Wheat",[8]; [17],10
same,"Plant response rating, Barley","[9]; 31 g ai/ha, postemergence, scale 0 to 100, 0 is no effect, 100 is complete control",0
same,"Plant response rating, Barley",[9]; [18],50
same,"Plant response rating, Barley",[9]; [19],70
same,"Plant response rating, Barley","[9]; Postemergence, 250 g ai/ha, scale 0 to 100 (0 no effect, 100 complete control)",70
same,"Plant response rating, Flood, Barnyardgrass",[10],75
same,"Plant response rating, Barnyardgrass",[10]; [21],20
same,"Plant response rating, Barnyardgrass",[10]; [20],40
same,"Plant response rating, Barnyardgrass",[10]; [22],55
same,"Plant response rating, Flood, Ducksalad",[11],75
same,"Plant response rating, Ducksalad",[11]; [21],40
same,"Plant response rating, Ducksalad",[11]; [20],65
same,"Plant response rating, Ducksalad",[11]; [22],75
same,"Plant response rating, Flood, Rice",[12],85
same,"Plant response rating, Rice",[12]; [21],15
same,"Plant response rating, Rice",[12]; [20],20
same,"Plant response rating, Rice",[12]; [22],60
same,"Plant response rating, Flood, Sedge, Umbrella",[13],90
same,"Plant response rating, Sedge, Umbrella",[13]; [21],40
same,"Plant response rating, Sedge, Umbrella",[13]; [20],85
same,"Plant response rating, Sedge, Umbrella",[13]; [22],90
